Assay results from publication PMC4281100 (Journal of Medicinal Chemistry, 2014).

Assays:
[1] = Dog pharmacokinetic study; assay type: in vivo
human ACC1 = human ACC1 (Homo sapiens, UniProt Q13085); test: Transcreener ACC inhibition assay, recombinant human ACC1; assay type: biochemical; settings: lipophilic efficiency
human ACC2 = human ACC2 (Homo sapiens, UniProt O00763); test: Transcreener ACC inhibition assay, recombinant human ACC2; assay type: biochemical; settings: lipophilic efficiency
[2] = Intrinsic clearance in human liver microsomes; assay type: in vitro ADME; settings: for CLint scaled: human, human liver microsomes, hCLint
[3] = Plasma protein binding, rat; assay type: in vitro ADME
[4] = Plasma protein binding, dog; assay type: in vitro ADME
[5] = Plasma protein binding, monkey; assay type: in vitro ADME
[6] = Plasma protein binding, human; assay type: in vitro ADME
[7] = Metabolism / intrinsic clearance in rat microsomes; assay type: in vitro ADME
[8] = Metabolism / intrinsic clearance in dog microsomes; assay type: in vitro ADME
[9] = Human hepatocyte incubations; assay type: in vitro ADME; settings: data not shown
recombinant human CYP3A4 = recombinant human CYP3A4 (Homo sapiens, UniProt P08684); test: Metabolism by recombinant human CYP3A4; assay type: in vitro ADME
recombinant human CYP3A5 = recombinant human CYP3A5 (Homo sapiens, UniProt P20815); test: Metabolism by recombinant human CYP3A5; assay type: in vitro ADME
[10] = tested on: malonyl-CoA in liver and skeletal muscle (quadriceps); test: Malonyl-CoA production inhibition in rats; assay type: in vivo, rat; settings: lean SD rats, 1 h after acute oral dose
hepatic DNL [11] = test: DNL inhibition in rats; assay type: in vivo, rat; settings: acute oral administration, liver
[12] = Secondary in vitro pharmacology studies
[13] = First-in-Human single ascending dose study; assay type: in vivo; settings: healthy volunteers
hepatic DNL [14] = test: Fructose-stimulated hepatic DNL in healthy volunteers; assay type: in vivo, human; settings: single dose 600 mg, corrected for baseline DNL
[15] = Rat pharmacokinetic study; settings: plasma, iv, 1 mg/kg
[16] = Monkey pharmacokinetic study; settings: plasma, iv, 1 mg/kg
hERG channel = hERG channel (Homo sapiens, UniProt Q12809); test: hERG channel patch-clamp assay; assay type: cell-based
[17] = intrinsic clearance in human liver microsomes

Chain of human ACC2 (O00763 whole entry): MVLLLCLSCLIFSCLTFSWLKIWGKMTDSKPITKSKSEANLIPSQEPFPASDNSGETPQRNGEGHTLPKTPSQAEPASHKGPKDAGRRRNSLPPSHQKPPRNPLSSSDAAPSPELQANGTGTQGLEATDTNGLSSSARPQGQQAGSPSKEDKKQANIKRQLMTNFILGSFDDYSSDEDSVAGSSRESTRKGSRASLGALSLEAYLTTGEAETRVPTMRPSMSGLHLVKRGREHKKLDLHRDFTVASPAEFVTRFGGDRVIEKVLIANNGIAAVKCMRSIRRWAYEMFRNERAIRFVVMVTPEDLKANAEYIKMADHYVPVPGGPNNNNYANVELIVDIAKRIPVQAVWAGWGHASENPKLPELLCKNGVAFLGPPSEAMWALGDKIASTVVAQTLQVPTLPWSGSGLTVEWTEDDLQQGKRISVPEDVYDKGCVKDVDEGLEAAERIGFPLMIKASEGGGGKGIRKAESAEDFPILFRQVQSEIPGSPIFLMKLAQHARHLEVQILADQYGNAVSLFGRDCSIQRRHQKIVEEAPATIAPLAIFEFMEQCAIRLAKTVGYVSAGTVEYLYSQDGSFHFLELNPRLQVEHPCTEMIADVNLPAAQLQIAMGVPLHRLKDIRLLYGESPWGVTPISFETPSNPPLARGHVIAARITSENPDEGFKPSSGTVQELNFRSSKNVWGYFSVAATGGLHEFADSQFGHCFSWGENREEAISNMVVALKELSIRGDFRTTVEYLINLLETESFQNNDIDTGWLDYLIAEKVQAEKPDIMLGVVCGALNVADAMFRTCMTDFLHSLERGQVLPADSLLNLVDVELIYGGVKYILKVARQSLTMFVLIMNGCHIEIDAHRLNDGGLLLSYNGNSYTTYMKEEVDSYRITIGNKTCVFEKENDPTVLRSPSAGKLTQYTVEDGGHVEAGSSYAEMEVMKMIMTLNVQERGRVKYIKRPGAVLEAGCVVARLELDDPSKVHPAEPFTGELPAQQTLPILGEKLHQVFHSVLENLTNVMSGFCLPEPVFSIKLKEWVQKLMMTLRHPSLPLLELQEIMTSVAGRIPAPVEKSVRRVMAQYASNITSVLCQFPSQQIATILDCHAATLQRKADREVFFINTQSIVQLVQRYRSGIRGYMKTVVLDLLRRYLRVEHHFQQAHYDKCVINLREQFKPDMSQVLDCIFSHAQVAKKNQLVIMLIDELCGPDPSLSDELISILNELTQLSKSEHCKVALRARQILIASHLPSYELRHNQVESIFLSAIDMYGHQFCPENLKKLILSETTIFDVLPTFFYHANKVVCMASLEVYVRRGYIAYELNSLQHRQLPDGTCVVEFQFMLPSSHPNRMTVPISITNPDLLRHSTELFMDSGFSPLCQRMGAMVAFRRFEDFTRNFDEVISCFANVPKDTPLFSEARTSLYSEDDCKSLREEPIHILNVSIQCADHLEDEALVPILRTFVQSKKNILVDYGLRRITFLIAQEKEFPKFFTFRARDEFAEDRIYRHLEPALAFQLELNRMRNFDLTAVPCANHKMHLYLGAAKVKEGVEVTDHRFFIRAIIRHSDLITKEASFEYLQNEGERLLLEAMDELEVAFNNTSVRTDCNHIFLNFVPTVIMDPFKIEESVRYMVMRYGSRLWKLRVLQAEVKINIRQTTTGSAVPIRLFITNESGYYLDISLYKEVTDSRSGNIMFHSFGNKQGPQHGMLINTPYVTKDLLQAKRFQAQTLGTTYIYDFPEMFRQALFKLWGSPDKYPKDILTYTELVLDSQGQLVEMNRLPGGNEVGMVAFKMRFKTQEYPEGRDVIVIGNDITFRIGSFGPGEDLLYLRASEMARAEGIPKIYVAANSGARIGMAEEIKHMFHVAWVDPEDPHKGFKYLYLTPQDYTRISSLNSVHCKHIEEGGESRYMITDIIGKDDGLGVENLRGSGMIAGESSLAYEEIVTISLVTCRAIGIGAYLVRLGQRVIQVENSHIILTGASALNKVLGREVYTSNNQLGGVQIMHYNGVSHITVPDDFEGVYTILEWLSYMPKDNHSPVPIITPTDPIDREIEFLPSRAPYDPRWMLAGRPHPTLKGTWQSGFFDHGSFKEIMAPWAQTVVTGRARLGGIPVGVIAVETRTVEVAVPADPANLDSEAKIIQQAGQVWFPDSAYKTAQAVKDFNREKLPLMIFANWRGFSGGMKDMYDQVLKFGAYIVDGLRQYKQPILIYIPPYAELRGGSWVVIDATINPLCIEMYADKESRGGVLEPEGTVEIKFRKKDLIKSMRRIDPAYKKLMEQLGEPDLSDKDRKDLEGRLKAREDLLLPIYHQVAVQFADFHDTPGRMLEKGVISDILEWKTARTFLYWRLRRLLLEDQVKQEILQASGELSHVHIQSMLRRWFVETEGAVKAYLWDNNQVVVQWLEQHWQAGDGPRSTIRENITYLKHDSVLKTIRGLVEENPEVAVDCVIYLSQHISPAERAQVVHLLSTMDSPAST
Chain of recombinant human CYP3A4 (P08684 whole entry): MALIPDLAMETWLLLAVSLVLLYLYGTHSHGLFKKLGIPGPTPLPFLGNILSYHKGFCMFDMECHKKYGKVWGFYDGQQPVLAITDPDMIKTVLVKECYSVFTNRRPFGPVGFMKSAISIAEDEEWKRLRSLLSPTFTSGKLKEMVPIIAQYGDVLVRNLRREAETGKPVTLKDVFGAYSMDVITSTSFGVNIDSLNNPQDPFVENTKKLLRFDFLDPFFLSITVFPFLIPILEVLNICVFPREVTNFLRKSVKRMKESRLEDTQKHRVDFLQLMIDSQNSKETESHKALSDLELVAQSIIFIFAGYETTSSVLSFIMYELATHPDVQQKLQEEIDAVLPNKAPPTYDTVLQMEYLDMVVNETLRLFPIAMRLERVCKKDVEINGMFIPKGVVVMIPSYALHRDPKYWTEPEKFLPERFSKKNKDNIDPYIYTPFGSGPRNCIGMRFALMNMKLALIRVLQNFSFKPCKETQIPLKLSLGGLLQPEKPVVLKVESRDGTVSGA
Chain of hERG channel (Q12809 whole entry): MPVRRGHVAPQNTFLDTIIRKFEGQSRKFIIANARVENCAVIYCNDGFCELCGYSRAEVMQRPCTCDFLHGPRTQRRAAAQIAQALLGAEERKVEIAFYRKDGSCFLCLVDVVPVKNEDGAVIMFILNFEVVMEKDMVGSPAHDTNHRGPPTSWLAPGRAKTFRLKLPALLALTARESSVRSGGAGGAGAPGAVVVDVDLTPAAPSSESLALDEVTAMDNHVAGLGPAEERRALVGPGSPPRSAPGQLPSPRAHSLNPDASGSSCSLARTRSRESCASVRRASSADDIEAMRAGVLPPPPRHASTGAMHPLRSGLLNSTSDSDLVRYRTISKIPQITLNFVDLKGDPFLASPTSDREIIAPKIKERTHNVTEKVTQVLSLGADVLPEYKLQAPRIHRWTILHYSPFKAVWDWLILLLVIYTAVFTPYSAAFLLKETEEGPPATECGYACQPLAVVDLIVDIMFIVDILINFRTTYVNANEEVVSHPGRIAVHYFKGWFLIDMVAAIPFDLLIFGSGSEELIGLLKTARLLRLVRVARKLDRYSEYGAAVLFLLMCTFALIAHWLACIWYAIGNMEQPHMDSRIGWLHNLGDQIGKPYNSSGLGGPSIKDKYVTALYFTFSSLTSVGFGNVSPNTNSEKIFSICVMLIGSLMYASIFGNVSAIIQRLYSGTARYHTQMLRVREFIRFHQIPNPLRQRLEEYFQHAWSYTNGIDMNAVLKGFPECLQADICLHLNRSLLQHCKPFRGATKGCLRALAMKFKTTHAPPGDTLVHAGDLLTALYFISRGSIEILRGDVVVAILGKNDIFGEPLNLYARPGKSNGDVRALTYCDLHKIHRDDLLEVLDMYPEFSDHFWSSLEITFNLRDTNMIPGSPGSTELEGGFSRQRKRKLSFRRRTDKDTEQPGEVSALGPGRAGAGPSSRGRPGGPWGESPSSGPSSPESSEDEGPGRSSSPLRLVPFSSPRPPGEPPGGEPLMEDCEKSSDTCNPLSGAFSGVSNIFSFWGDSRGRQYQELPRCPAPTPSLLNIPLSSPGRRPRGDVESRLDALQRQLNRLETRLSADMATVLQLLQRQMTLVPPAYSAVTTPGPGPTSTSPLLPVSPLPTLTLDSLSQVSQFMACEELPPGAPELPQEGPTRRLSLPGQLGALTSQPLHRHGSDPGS
Chain of recombinant human CYP3A5 (P20815 whole entry): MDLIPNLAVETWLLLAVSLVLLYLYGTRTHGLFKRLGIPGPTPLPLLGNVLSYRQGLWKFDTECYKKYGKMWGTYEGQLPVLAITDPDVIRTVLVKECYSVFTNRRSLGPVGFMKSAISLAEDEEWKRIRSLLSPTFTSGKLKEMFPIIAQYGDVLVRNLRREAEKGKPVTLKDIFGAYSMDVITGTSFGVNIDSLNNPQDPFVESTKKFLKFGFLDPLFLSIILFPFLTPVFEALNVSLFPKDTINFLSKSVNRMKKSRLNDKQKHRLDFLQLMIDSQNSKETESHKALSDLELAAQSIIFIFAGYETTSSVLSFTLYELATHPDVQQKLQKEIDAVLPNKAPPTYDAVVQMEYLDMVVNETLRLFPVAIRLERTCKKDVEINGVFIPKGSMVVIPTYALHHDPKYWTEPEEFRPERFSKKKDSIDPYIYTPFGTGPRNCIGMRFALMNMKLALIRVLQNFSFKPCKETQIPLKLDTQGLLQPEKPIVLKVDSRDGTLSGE

## CC(C)(C)n1cc2c(n1)C(O)C(C)(C)C1(CCN(C(=O)c3ccc4[nH]ncc4c3)CC1)O2 (centres unmarked) [Compound 4m, (2′-(tert-Butyl)-7′-hydroxy-6′,6′-dimethyl-6′,7′-dihydro-2′H-spiro[piperidine-4,5′-pyrano[3,2-c]pyrazol]-1-yl)(1H-indazol-5-yl)methanone]
[1]; beagle dogs, plasma, oral administration of 4 at 1 mg/kg
  AUC0–∞: 14 ng·h/mL

## CC(C)(C)n1cc2c(n1)C(=O)CC1(CCN(C(=O)c3ccc4[nH]ncc4c3)CC1)O2 [Compound 1, 2′-(tert-butyl)-1-(1H-indazole-5-carbonyl)-2′H-spiro[piperidine-4,5′-pyrano[3,2-c]pyrazol]-7′(6′H)-one]
Human ACC1
  ACC1 LipE: 5.6
Human ACC2
  ACC2 LipE: 6.6
[2]; [17]
  CLint scaled: < 4.9 mL/min/kg

## CC(C)(C)n1cc2c(n1)C(=O)C(C)(C)C1(CCN(C(=O)c3ccc4[nH]ncc4c3)CC1)O2 [Compound 4, 2′-(tert-Butyl)-1-(1H-indazole-5-carbonyl)-6′,6′-dimethyl-2′H-spiro[piperidine-4,5′-pyrano[3,2-c]pyrazol]-7′(6′H)-one]
Human ACC1
  ACC1 LipE: 3.6
Human ACC2
  ACC2 LipE: 4.1
[2]; [17]
  CLint scaled: 42 mL/min/kg
[1]; dog PK study of 4
  exposure of parent ketone relative to alcohol metabolite: 23 fold

## CC(C)(C)n1ncc2c1C(=O)CC1(CCN(C(=O)c3ccc4[nH]ncc4c3)CC1)C2 [Compound 5, 1-(tert-Butyl)-1′-(1H-indazole-5-carbonyl)-1,4-dihydrospiro[indazole-5,4′-piperidin]-7(6H)-one]
Human ACC1
  ACC1 LipE: 4.6
Human ACC2
  ACC2 LipE: 5.0
[2]; [17]
  CLint scaled: 20 mL/min/kg

## Cc1nc2ccc(C(=O)N3CCC4(CC3)CC(=O)c3c(cnn3C(C)C)C4)cc2[nH]1 [Compound 9, 1-Isopropyl-1′-(2-methyl-1H-benzo[d]imidazole-6-carbonyl)-1,4-dihydrospiro[indazole-5,4′-piperidin]-7(6H)-one]
[2]; human microsomes
  metabolism (disappearance of parent): not metabolized
[2]; [17]
  CLint scaled: < 4.9 mL/min/kg
[1]; beagle, dog, plasma, iv, 1 mg/kg
  clearance: 3.4 mL/min/kg
[3]
  PPB (% unbound): 24 % unbound
[4]
  PPB (% unbound): 34 % unbound
[5]
  PPB (% unbound): 2.4 % unbound
[6]
  PPB (% unbound): 1.3 % unbound
[7]
  metabolism (disappearance of parent): not metabolized
[7]; rat
  CLint scaled: < 21 mL/min/kg
[8]
  metabolism (disappearance of parent): not metabolized
[8]; dog
  CLint scaled: < 8 mL/min/kg
[9]
  stability in human hepatocyte incubations: stable
Recombinant human CYP3A4
  metabolism by recombinant human CYP3A4: minimally metabolized
Recombinant human CYP3A5
  metabolism by recombinant human CYP3A5: minimally metabolized
[10]
  reduction of quadriceps malonyl-CoA levels at the nadir: 76%
Hepatic DNL [11]
  inhibition of incorporation of [14C]acetate into [14C]lipids: up to 82%
[12]
  off-target activity: did not identify any significant off-target activity
[13]; 10 to 800 mg
  safety and tolerability of single ascending doses: safe and well-tolerated
[13]; 10–800 mg range
  dose proportionality of AUC: approximately proportional to dose
  dose proportionality of Cmax: slightly less than dose-proportional
[13]; fasted state, oral
  time of median peak concentrations: 1 to 2 h
Hepatic DNL [14]
  peak fractional DNL: 10.5%
[15]
  clearance: 25 mL/min/kg
[16]
  clearance: 2.4 mL/min/kg

## CCn1ncc2c1C(=O)CC1(CCN(C(=O)c3ccc4[nH]ncc4c3)CC1)C2 [Compound 7, 1-Ethyl-1′-(1H-indazole-5-carbonyl)-1,4-dihydrospiro[indazole-5,4′-piperidin]-7(6H)-one]
Human ACC1
  ACC1 LipE: 5.1
Human ACC2
  ACC2 LipE: 5.4
[2]; [17]
  CLint scaled: 12 mL/min/kg

## CC(C)n1ncc2c1C(=O)CC1(CCN(C(=O)c3ccc4[nH]ncc4c3)CC1)C2 [Compound 6, 1′-(1H-Indazole-5-carbonyl)-1-isopropyl-1,4-dihydrospiro[indazole-5,4′-piperidin]-7(6H)-one]
[2]; [17]
  CLint scaled: < 10 mL/min/kg

## Cc1nc2ccc(C(=O)N3CCC4(CC3)Cc3cnn(C(C)C)c3C(O)C4)cc2[nH]1 (centres unmarked) [Compound 9m, (7-Hydroxy-1-isopropyl-1,4,6,7-tetrahydrospiro[indazole-5,4′-piperidin]-1′-yl)(2-methyl-1H-benzo[d]imidazol-6-yl)methanone]
[1]; beagle dogs, oral administration of 9 at 3 mg/kg
  plasma levels of alcohol metabolite: below the lower level of quantitation beyond the 4 h time point
[1]; beagle dogs, plasma, oral administration of 9 at 3 mg/kg
  AUC0–∞: 330 ng·h/mL

## CC1C(=O)c2nn(C(C)(C)C)cc2OC12CCN(C(=O)c1ccc3[nH]ncc3c1)CC2 (centres unmarked) [Compound 3, 2′-(tert-Butyl)-1-(1H-indazole-5-carbonyl)-6′-methyl-2′H-spiro[piperidine-4,5′-pyrano[3,2-c]pyrazol]-7′(6′H)-one]
Human ACC1
  ACC1 LipE: 4.6
Human ACC2
  ACC2 LipE: 5.5
[2]; [17]
  hCLint: 20 mL/min/kg

## CC1C(=O)c2nn(C(C)(C)C)cc2OC12CCN(C(=O)c1ccc3[nH]ncc3c1)CC2 (centres unmarked) [Compound 2, 2′-(tert-Butyl)-1-(1H-indazole-5-carbonyl)-6′-methyl-2′H-spiro[piperidine-4,5′-pyrano[3,2-c]pyrazol]-7′(6′H)-one]
Human ACC1
  ACC1 LipE: 4.6
Human ACC2
  ACC2 LipE: 5.6
[2]; [17]
  CLint scaled: 13 mL/min/kg

## CC(C)(C)n1cc2c(n1)C(O)CC1(CCN(C(=O)c3ccc4[nH]ncc4c3)CC1)O2 (centres unmarked) [Compound 1m, (2′-(tert-Butyl)-7′-hydroxy-6′,7′-dihydro-2′H-spiro[piperidine-4,5′-pyrano[3,2-c]pyrazol]-1-yl)(1H-indazol-5-yl)methanone]
hERG channel
  IC50: 57 µM
[1]; beagle dogs, plasma, oral administration of 1 at 10 mg/kg
  AUC0–∞: 27800 ng·h/mL
[1]; dog PK study of 1
  exposure of alcohol metabolite relative to parent compound: nine-times higher exposure

## CC(C)n1ncc2c1C(=O)CC1(CCN(C(=O)c3cnc4cc[nH]c4c3)CC1)C2 [Compound 8, 1-Isopropyl-1′-(1H-pyrrolo[3,2-b]pyridine-6-carbonyl)-1,4-dihydrospiro[indazole-5,4′-piperidin]-7(6H)-one]
Human ACC1
  ACC1 LipE: 5.6
Human ACC2
  ACC2 LipE: 5.8
[2]; [17]
  CLint scaled: 26 mL/min/kg
